In patent US20090099167A1, “Organic compounds” (Novartis Institutes for Biomedical Research, priority 2004, published 2009):
Like-named read-outs stand apart in the source and are kept apart here.

Legend:
Cdk1/cycB = Cdk1/cycB (UniProt P06493); test: Cdk1/cycB kinase assay, histone H1 substrate; assay type: biochemical, starfish
Protocol: The inhibition of Cdk1 can be determined as follows: Cdk1/cycB: Cdk1/cycB are obtained from ProQinase, Freiburg, Germany. Starfish oocytes are induced to enter M phase of the cell cycle with 10 μM 1-methyladenine and frozen in liquid nitrogen and stored at −80° C. […] Briefly, the supernatant from oocytes is equilibrated for 30 min at 4° C. under constant rotation with the p9^CKShs-sepharose beads. The beads are extensively washed and active cdk1/cycB kinase is eluted with purified p9^CKShs (3 mg/ml). […] The assay is carried with slight modifications in 96-well plates at ambient temperature for 20 min. […] The reaction is terminated by addition of 25 μl 0.05 M EDTA pH 7.0. An aliquot of 40 μl is spotted with a multichannel dispenser on Immobilon P membranes mounted in a Millipore Microtiter filter manifold connected to a low vacuum source. After elimination of liquid, the membrane is transferred to a sequence of 4 washing baths containing 0.5% H3PO4 and one with EtOH (shaking incubation for 10 min each), dried, mounted onto a Hewlett Packard TopCount manifold added 10 μl Microscint® and counted. […] Cells were seeded at 2.5×10^7 cells per 150 mm dish and allowed to attach to a 150 mm dish for 1 hr at RT. Media (SF900II containing 10% FBS) is aspirated and recombinant baculovirus; GST-C-Raf-1, v-Ras and v-Src are added at MOI of 3.0, 2.5 and 2.5 receptively in a total volume of 4-5 mL. Cells are incubated for 1 hr at RT and then 15 mL of medium is added. Infected cells are incubated for 48-72 hr at 27° C. Infected Sf21 cells are scraped and collected into a 50 mL tube and centrifuged for 10 min at 4° C. at 1100 g in a Sorvall centrifuge. The cell pellet is washed once with ice cold PBS and lysed with 0.6 mL lysis buffer per 2.5×10^7 cells. Complete lysis of cells is achieved after 10 min on ice with occasional pipetting. […] GST-c-Raf-1 was allowed to bind to the beads at 4° C. for 1 hr with rocking. Bound GST-c-Raf-1 with beads was transferred to a column. The column is washed once with lysis buffer and twice with ice cold Tris buffered saline. Ice cold elution buffer is added and column flow is stopped to allow the free glutathione to disrupt the interaction of GST-c-Raf-1 with glutathione sepharose beads. Fractions (1 mL) are collected into pre-chilled tubes. Each tube contains 10% glycerol (final concentration) to maintain kinase activity during freeze thaw cycles. Purified fractions of GST-c-Raf-1 kinase protein are stored at −80° C.

human IGF-IR = target: T1, human IGF-IR (Homo sapiens, UniProt P08069); test: IGF-1R tyrosine kinase assay, GST-IGF-1R; assay type: biochemical; conditions: Table 5; read-out: IGF-1R, IC50 class
T1 construct: expresses the amino acid region 950-1337 of the mature peptide cytoplasmic domain of the human IGF-IR; made in house; host or cells: baculovirus (Bac-to-Bac)
T1 sequence (P08069 980-1367): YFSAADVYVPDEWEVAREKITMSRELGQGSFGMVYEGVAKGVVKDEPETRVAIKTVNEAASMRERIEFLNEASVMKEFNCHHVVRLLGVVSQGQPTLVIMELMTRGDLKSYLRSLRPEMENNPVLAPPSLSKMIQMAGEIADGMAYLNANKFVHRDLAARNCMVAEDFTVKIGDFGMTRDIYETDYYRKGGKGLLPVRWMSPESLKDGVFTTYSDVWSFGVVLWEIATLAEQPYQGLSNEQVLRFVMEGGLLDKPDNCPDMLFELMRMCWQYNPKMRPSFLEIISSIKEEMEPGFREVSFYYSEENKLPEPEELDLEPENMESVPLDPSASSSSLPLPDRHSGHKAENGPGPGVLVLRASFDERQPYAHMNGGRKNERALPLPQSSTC
Excerpt: The inhibition of IGF-1R and Ins-R can be determined as follows: The baculovirus donor vector pfbgx3IGFIRcd is used to generate a recombinant baculovirus that expresses the amino acid region 950-1337 of the mature peptide cytoplasmic domain of the human IGF-IR. To generate the cDNA fragment encoding the amino acid region 919-1343 of the intra-cytoplasmic kinase domain of the human insulin receptor, pC5hInsR is used. The fragments of the human IGF-IR and Ins-R are cloned, expressed and small-scale purified as a factor Xa-cleavable glutathione-S-transferase (GST)-fusion protein using the Bac-to-Bac™ system (GIBCO BRL) of recombinant baculovirus generation. Virus containing media is collected from the transfected cell culture and used for infection to increase its titer. Virus containing media obtained after two rounds of infection is used for large-scale protein expression. Cell extracts are prepared and loaded onto a glutathione-Sepharose (Pharmacia) column. After washing, the GST-tagged proteins are then eluted with a glutathione-containing buffer. Purified protein is stored at −70° C. in elution buffer. Tyrosine protein kinase assays with purified GST-IGF-1R and GST-ins-R are carried in a final volume of 30 μl containing 20 mM Tris-HCl, pH 7.6, 10 mM MgCl2, 0.01 mM Na3VO4, 1% DMSO, 1 mM DTT, 3 μg/ml poly(Glu,Tyr) 4:1 and 10 μM ATP (γ-[^33P]-ATP 0.1 μCi). The assay is performed in 96-well plates at ambient temperature for 20 min and terminated by addition of 25 μl 0.05 M EDTA pH 7.0. An aliquot of 40 μl is spotted with a multichannel dispenser on Whatman P81 membranes mounted in a Millipore Microtiter filter manifold connected to a low vacuum source. After elimination of liquid, the membrane is transferred to a sequence of 4 washing baths containing 0.5% H3PO4 and one with EtOH (shaking incubation for 10 min each), dried, mounted onto a Hewlett Packard TopCount manifold added 10 μl Microscint® and counted. Compounds of formula (I) show up to 90% inhibition of Ins-R at 10,000 nM, preferably between 60-90% inhibition. The inhibition of Tek can be determined as follows: The procedure of the expression, purification and assay these kinases has been described. Fabbro et al., Pharmacol. Ther. 82(2-3) 293-301 (1999). In brief, the glutathione S-transferase (GST) gene from the pAcG1 vector (Pharmingen) is excised with EcoRV and EcoRI and inserted into the cloning site of the Fast-Bac baculoviral vector (GIBCO) creating a 5530 bp vector with N-terminal cloning sites derived from the pAcG1 fusion vector (FBG0). The C-terminal cloning site may be any cloning site (from the Fast-Bac vector) downstream of the N-terminal cloning site used. N-terminally GST-fused (pAcG1, Pharmingen) KDR, Flt-1, Flk-1, Tek and PDGFR-β kinase domains are obtained from ProQinase, Freiburg, Germany. Tek is recloned into the FBG1 vector by EcoRI excision and ligation into EcoRI digested FBG1 (FBG1-Tek). The coding sequences for the whole cytoplasmic domain of c-Kit (aa 544-976) and c-Fms (aa 538-972) are amplified by PCR from human uterus and from human bone marrow cDNA libraries (Clontech), respectively. The amplified DNA fragments are fused to GST by cloning them into FBG1 as BamHI-EcoRI insertions, to yield FBG1-c-Kit and FBG1-c-Fms. Tek is recloned into the FBG0 transfer vector by EcoRI excision and ligation into EcoRI digested FBG0 (FBG-Tie2/Tek). FGFR-1 and c-met kinase domains are obtained by PCR from human A431 cells. N-terminal primers contain an overhanging EcoRI site, while C-terminal primers contain a XhoI site to aid cloning into the transfer vectors. After digestion of both the PCR fragments and FBG0 the cleavage products are gel-purified and ligated together to form the kinase constructs (FBG-Met, FBG-FGFR-1).

[1] = Table 4, read-out: Cdk1, activity (IC50 for kinase inhibition)
[2] = Table 5, read-out: CDK1/B, IC50 class

| Compound | IC50 (Cdk1/cycB; [1]) [µM] | IC50 (Cdk1/cycB; [2]) [µM] | IC50 (human IGF-IR) [µM] |
| --- | --- | --- | --- |
| Nc1c(-c2cccc(O)c2)cnc2c(-c3cccnc3)cnn12 [Example 46, 3-[7-Amino-3-pyridin-3-yl-pyrazolo[1,5-a]pyrimidin-6-yl]-phenol] | < 10 | – | – |
| COc1cccc(-c2cnn3c(N)c(-c4cccc(O)c4)cnc23)c1 [Example 60, 3-[7-Amino-3-(3-methoxy-phenyl)-pyrazolo[1,5-a]pyrimidin-6-yl]-phenol] | < 10 | – | – |
| Cc1nc2c(-c3cccc(N4CCN(C)CC4)c3)cnn2c(N)c1-c1cccc(Cl)c1 [Example 72, 6-(3-Chloro-phenyl)-5-methyl-3-[3-(4-methyl-piperazin-1-yl)-phenyl]-pyrazolo[1,5-a]pyrimidin-7-ylamine] | – | > 10 | > 10 |
| Cc1nc2c(-c3ccc(N4CCN(C)CC4)cc3)cnn2c(N)c1-c1cccc(Cl)c1 [Example 73, 6-(3-Chloro-phenyl)-5-methyl-3-[4-(4-methyl-piperazin-1-yl)-phenyl]-pyrazolo[1,5-a]pyrimidin-7-ylamine] | – | > 10 | > 10 |
| COc1cc(N2CCN(C)CC2)ccc1-c1cnn2c(N)c(-c3cccc(O)c3)cnc12 [Example 76, 3-{7-Amino-3-[2-methoxy-4-(4-methyl-piperazin-1-yl)-phenyl]-pyrazolo[1,5-a]pyrimidin-6-yl}-phenol] | – | > 10 | – |
| Cc1nc2c(-c3ccc(N4CCN(C)CC4)cc3)cnn2c(N)c1-c1ccc(F)cc1 [Example 79, 6-(4-Fluoro-phenyl)-5-methyl-3-[4-(4-methyl-piperazin-1-yl)-phenyl]-pyrazolo[1,5-a]pyrimidin-7-ylamine] | – | > 10 | > 10 |
| Cc1nc2c(-c3cccc(N4CCN(C)CC4)c3)cnn2c(N)c1-c1ccc(F)cc1 [Example 80, 6-(4-Fluoro-phenyl)-5-methyl-3-[3-(4-methyl-piperazin-1-yl)-phenyl]-pyrazolo[1,5-a]pyrimidin-7-ylamine] | – | > 10 | > 10 |
| Cc1nc2c(-c3cccc(N4CCN(C5CCN(C)CC5)CC4)c3)cnn2c(N)c1-c1cccc(Cl)c1 [Example 81, 6-(3-Chloro-phenyl)-5-methyl-3-{3-[4-(1-methyl-piperidin-4-yl)-piperazin-1-yl]-phenyl}-pyrazolo[1,5-a]pyrimidin-7-ylamine] | – | > 10 | < 1 |
| Cc1nc2c(-c3cccc(N4CCN(C)CC4)c3)cnn2c(N)c1-c1ccc(F)c(Cl)c1 [Example 82, 6-(3-Chloro-4-fluoro-phenyl)-5-methyl-3-[3-(4-methyl-piperazin-1-yl)-phenyl]pyrazolo[1,5-a]pyrimidin-7-ylamine] | – | > 10 | > 10 |
| Cc1nc2c(-c3ccc(N4CCN(C)CC4)cc3)cnn2c(N)c1-c1ccc(F)c(Cl)c1 [Example 83, 6-(3-Chloro-4-fluoro-phenyl)-5-methyl-3-[4-(4-methyl-piperazin-1-yl)-phenyl]-pyrazolo[1,5-a]pyrimidin-7-ylamine] | – | > 10 | > 10 |
| Cc1nc2c(-c3cccc(N4CCN(C)CC4)c3)cnn2c(N)c1-c1cccc(Br)c1 [Example 84, 6-(3-Bromo-phenyl)-5-methyl-3-[3-(4-methyl-piperazin-1-yl)-phenyl]-pyrazolo[1,5-a]pyrimidin-7-ylamine] | – | > 10 | > 10 |
| CN1CCN(c2cccc(-c3cnn4c(N)c(Cc5cccc(Br)c5)cnc34)c2)CC1 [Example 85, 6-(3-Bromo-benzyl)-3-[3-(4-methyl-piperazin-1-yl)-phenyl]pyrazolo[1,5-a]pyrimidin-7-ylamine] | – | > 10 | > 10 |
| CN1CCN(c2cccc(-c3cnn4c(N)c(-c5cccc(Br)c5)cnc34)c2)CC1 [Example 86, 6-(3-Bromo-phenyl)-3-[3-(4-methyl-piperazin-1-yl)-phenyl]-pyrazolo[1,5-a]pyrimidin-7-ylamine] | – | > 10 | > 10 |
| Cc1nc2c(-c3cccc(N4CCOCC4)c3)cnn2c(N)c1-c1cccc(Cl)c1 [Example 87, 6-(3-Chloro-phenyl)-5-methyl-3-(3-morpholin-4-yl-phenyl)-pyrazolo[1,5-a]pyrimidin-7-ylamine] | – | > 10 | > 10 |
